Results published in US7393812B2, “Methylidene mevalonates and their use as herbicides” (Dow AgroSciences LLC, priority 2004, dated 2008).

Key:
Assay type in all cases: in vivo
[1] = tested on: velvetleaf (Abutilon theophrasti, ABUTH); experiment: General herbicidal evaluation, postemergence; details: 16 days after treatment
Source text: Applications of methylidene mevalonate were made either to the foliage (postemergence) or soil (preemergence). Seeds of sunflower (Helianthus annus, HELAN), morningglory (Ipomoea hederacea, IPOHE) velvetleaf (Abutilon theophrasti, ABUTH), pigweed (Amaranthus spp., AMARE), barnyardgrass (Echinochloa crusgalli, ECHCG), giant foxtail (Setaria faberi, SETFA), wild oats (Avena fatua, AVEFA), and blackgrass (Alopecurus myosuroides, ALOMY) were planted in mineral soil (sandy clay loam, 51% sand, 26% silt, 23% clay, 2.8% O.M., pH 7.8) and Metro-mix (Bulk Sak, Inc., Malvern, Ark., USA) for preemergence and postemergence treatments, respectively. Pots receiving preemergence treatments were watered immediately following application. Prior to postemergence treatment, plants were grown in the greenhouse (16 h photoperiod, 27 C) and thinned to a density of 2 to 15 plants pot^−1, depending on species. At the time of postemergence applications, plants were 8-12 days old, 3 to 10 cm in height, and in the 1- to 3-true-leaf stage. Natural light in the greenhouse was supplemented with metal halide lights that provided an average photosynthetic photon flux of 500 μmol m^−2s^−1.
A sample of sodium methylidene mevalonate was dissolved in 4 mL of distilled water followed by 10 mL of formulation stock “B” (200 mL isopropanol, 20 mL crop oil concentrate, 0.4 g Triton X-155 [Sigma Chemical Co., St. Louis, Mo. 62718], and 78 mL water). This was followed by three 1:1 (v/v) serial dilutions using formulation stock “C” (100 mL isopropanol, 10 mL crop oil concentrate, 0.2 g Triton X-155, 390 mL water, 485 mL acetone and 15 mL DMSO).
Treatments were made at four different doses (4000, 2000, 1000, and 500 g ha^−1). For preemergence treatments, 1.75 mL of spray solution were applied to the soil surface in each pot using a glass Cornwall syringe fitted with a Teejet SS8001E flat-fan nozzle (Spraying Systems Co., Wheaton, Ill. 60189-7900). For postemergence applications, the foliage of the test plants was sprayed using a DeVilbiss atomizer (DeVilbiss Health Car, Inc., Somerset, Pa. 15501) driven by compressed air at a pressure of 22 kPa. Untreated controls were included.
Pots were placed in the greenhouse following compound application. Pots from postemergence and preemergence were sub-irrigated and top-watered, respectively, as needed for the duration of the test. […]

[2] = tested on: Canada thistle (Cirsium arvense, CIRAR); experiment: Post-emergent evaluation; details: after 2 weeks
Procedure: (§1) Seeds of the desired test plant species were planted in Grace-Sierra MetroMix® 306 planting mixture, which typically has a pH of 6.0 to 6.8 and an organic matter content of about 30 percent, in plastic pots with a surface area of 64 square centimeters. When required to ensure good germination and healthy plants, a fungicide treatment and/or other chemical or physical treatment was applied. The plants were grown for 7-21 days in a greenhouse with an approximate 15 hr photoperiod which was maintained at about 23-29° C. during the day and 22-28° C. during the night. Nutrients and water were added on a regular basis and supplemental lighting was provided with overhead metal halide 1000-Watt lamps as necessary. The plants were employed for testing when they reached the first or second true leaf stage.
(§2) A weighed amount, determined by the highest rate to be tested, of each test compound was placed in a 20 mL glass vial and was dissolved in 4 mL of a 97:3 v/v (volume/volume) mixture of acetone and dimethyl sulfoxide (DMSO) to obtain concentrated stock solutions. […] The concentrated stock solutions obtained were diluted with an aqueous mixture containing acetone, water, isopropyl alcohol, DMSO, Atplus 411F crop oil concentrate, and Triton X-155 surfactant in a 48.5:39:10:1.5:1.0:0.02 v/v ratio to obtain spray solutions of known concentration. The solutions containing the highest concentration to be tested were prepared by diluting 2 mL aliquots of the stock solution with 13 mL of the mixture and lower concentrations were prepared by serial dilution of the stock solution. Approximately 1.5 mL aliquots of each solution of known concentration were sprayed evenly onto each of the test plant pots using a DeVilbiss atomizer driven by compressed air pressure of 2 to 4 psi ([…]) to obtain thorough coverage of each plant. Control plants were sprayed in the same manner with the aqueous mixture. In this test an application rate of 1 ppm results in the application of approximately 1 g/Ha.
(§3) The treated plants and control plants were placed in a greenhouse as described above and watered by sub-irrigation to prevent wash-off of the test compounds. After 2 weeks the condition of the test plants as compared with that of the untreated plants was determined visually and scored on a scale of 0 to 100 percent where 0 corresponds to no injury and 100 corresponds to complete kill. Species abbreviations as described for Table I with the following additions: soybean (Glycine max, GLXMA), rape (Brassica napus, BRSNN), chickweed (Stellaria media, STEME), cocklebur (Xanthium strumarium XANST), lambsquarters (Chenopodium album, CHEAL), violet (Viola tricolor, VIOTR), bindweed (Polygonum convolvulus, POLCO), spurge (Euphorbia heterophylla, EPHHL), Canada thistle (Cirsium arvense, CIRAR), corn (Zea mays, ZEAMX), rice (Oryza sativa, ORYSA), wheat (Triticum aestivum, TRZAS), crabgrass (Digitaria sanguinalis, DIGSA), shattercane (Sorghum vulgare, SORVU) and yellow nutsedge (Cyperus esculentus, CYPES).

[3] = tested on: bindweed (Polygonum convolvulus, POLCO); experiment: Post-emergent evaluation; details: after 2 weeks
Procedure: as §1, §2, §3

[4] = tested on: blackgrass (Alopecurus myosuroides, ALOMY); experiment: Post-emergent evaluation; details: after 2 weeks
Procedure: as §1, §2, §3

[5] = tested on: lambsquarters (Chenopodium album, CHEAL); experiment: Post-emergent evaluation; details: after 2 weeks
Procedure: as §1, §2, §3

[6] = tested on: soybean (Glycine max, GLXMA); experiment: Post-emergent evaluation; details: after 2 weeks
Procedure: as §1, §2, §3

[7] = tested on: wheat (Triticum aestivum, TRZAS); experiment: Post-emergent evaluation; details: after 2 weeks
Procedure: as §1, §2, §3

Structure (SMILES): C=C(CO)C(C)(O)CC(=O)O (stereo not shown) [methylidene mevalonate, 3-hydroxy-4-(hydroxymethyl)-3-methylpent-4-enoic acid]
- Visual Injury (%) ([1]; 0.5 kg ha^−1, ABUTH): 40%
- Visual Injury (%) ([1]; 1.0 kg ha^−1, ABUTH): 60%
- Visual Injury (%) ([1]; 2.0 kg ha^−1, ABUTH): 60%
- Visual Injury (%) ([1]; 4.0 kg ha^−1, ABUTH): 65%
- Postemergent % Control ([2]; spray concentration 125 ppm): 10%
- Postemergent % Control ([2]; spray concentration 250 ppm): 10%
- Postemergent % Control ([2]; spray concentration 500 ppm): 20%
- Postemergent % Control ([2]; spray concentration 1000 ppm): 40%
- Postemergent % Control ([2]; spray concentration 2000 ppm): 50%
- Postemergent % Control ([3]; spray concentration 125 ppm): 20%
- Postemergent % Control ([3]; spray concentration 250 ppm): 20%
- Postemergent % Control ([3]; spray concentration 500 ppm): 85%
- Postemergent % Control ([3]; spray concentration 1000 ppm): 90%
- Postemergent % Control ([3]; spray concentration 2000 ppm): 95%
- Postemergent % Control ([4]; spray concentration 125 ppm): 0%
- Postemergent % Control ([4]; spray concentration 250 ppm): 20%
- Postemergent % Control ([4]; spray concentration 500 ppm): 60%
- Postemergent % Control ([4]; spray concentration 1000 ppm): 70%
- Postemergent % Control ([4]; spray concentration 2000 ppm): 80%
- Postemergent % Control ([5]; spray concentration 125 ppm): 0%
- Postemergent % Control ([5]; spray concentration 250 ppm): 0%
- Postemergent % Control ([5]; spray concentration 500 ppm): 10%
- Postemergent % Control ([5]; spray concentration 1000 ppm): 50%
- Postemergent % Control ([5]; spray concentration 2000 ppm): 80%
- Postemergent % Control ([6]; spray concentration 125 ppm): 20%
- Postemergent % Control ([6]; spray concentration 250 ppm): 20%
- Postemergent % Control ([6]; spray concentration 500 ppm): 50%
- Postemergent % Control ([6]; spray concentration 1000 ppm): 80%
- Postemergent % Control ([6]; spray concentration 2000 ppm): 80%
- Postemergent % Control ([7]; spray concentration 125 ppm): 0%
- Postemergent % Control ([7]; spray concentration 250 ppm): 20%
- Postemergent % Control ([7]; spray concentration 500 ppm): 20%
- Postemergent % Control ([7]; spray concentration 1000 ppm): 70%
- Postemergent % Control ([7]; spray concentration 2000 ppm): 80%
